Measurements as given in paper PMC2254147, “Novel Triazine JPC-2067-B Inhibits Toxoplasma gondii In Vitro and In Vivo” (PLoS Neglected Tropical Diseases, 2008).
Converted amounts (≈) assume the structure as drawn. Like-named read-outs stand apart in the source and are kept apart here.

Experiments:
Rat liver DHFR = molecular target: T1, Rat liver DHFR (Rattus norvegicus, UniProt Q920D2); test: Spectrophotometric DHFR assay, rat liver DHFR; assay type: biochemical; settings: for IC50: 37°C, (95% confidence limits); for Selectivity for pathogen DHFR (in words): rat liver DHFR versus Pc, Tg, Mav DHFR, Table 1
T1 construct: Rat liver DHFR was prepared from livers of female Sprague-Dawley rats; from tissue; host or cells: liver of female Sprague-Dawley rats
T1 sequence (Q920D2 1-187): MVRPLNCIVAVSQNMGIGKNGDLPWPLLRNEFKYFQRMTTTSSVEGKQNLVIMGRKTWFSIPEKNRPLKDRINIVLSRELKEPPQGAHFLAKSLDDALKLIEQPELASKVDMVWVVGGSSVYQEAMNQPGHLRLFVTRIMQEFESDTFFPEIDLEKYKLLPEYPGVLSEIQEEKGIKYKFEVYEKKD
Experimental: Rat liver DHFR was prepared from livers of female Sprague-Dawley rats. The 100,000× g supernate was partially purified by ammonium sulfate precipitation; the 50–90% precipitate was re-dissolved and stored in liquid nitrogen.
(§1) The spectrophotometric assay for DHFR was optimized for temperature and concentration of substrate and cofactor for each enzyme. […] The reaction was continuously recorded for 3 minutes. […] The low background activity in the absence of dihydrofolic acid was subtracted from all rates.
(§2) DHFR was assayed with several concentrations of inhibitor to produce rates ranging from 1 to 90% of the uninhibited rate. At least three concentrations were required for calculation; most curves contained five concentrations.

Pc DHFR = molecular target: T2, Pc DHFR (Pneumocystis carinii, UniProt P16184); test: Spectrophotometric DHFR assay, Pneumocystis carinii DHFR; assay type: biochemical
T2 construct: made in house; host or cells: Escherichia coli
T2 sequence (P16184 1-206): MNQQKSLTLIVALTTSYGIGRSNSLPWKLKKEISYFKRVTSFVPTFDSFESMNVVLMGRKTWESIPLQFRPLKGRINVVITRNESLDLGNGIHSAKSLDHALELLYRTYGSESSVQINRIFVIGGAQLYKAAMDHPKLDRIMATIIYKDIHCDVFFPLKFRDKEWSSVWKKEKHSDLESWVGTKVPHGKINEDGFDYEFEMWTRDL
Description: DHFR from Pneumocystis carinii was produced as the recombinant enzyme expressed in Escherichia coli. […] DHFR from T. gondii was isolated directly from RH strain T. gondii grown in culture on Chinese hamster ovary cells lacking DHFR (CHO/dhfr^-, American Type Culture Collection 3952 CL). Organisms were introduced into a confluent monolayer and harvested when the mammalian cells were lysed. The 100,000× g supernate was stored in liquid nitrogen.
The spectrophotometric assay for DHFR was optimized for temperature and concentration of substrate and cofactor for each enzyme. The standard assay contained Na phosphate buffer pH 7.4 (40.7 mM), 2-mercaptoethanol (8.9 mM), NADPH (0.117 mM), dihydrofolic acid (0.09 mM), KCL (150 mM), and sufficient enzyme to produce a change in OD340 of 0.035/minute at 37°C. The reaction was continuously recorded for 3 minutes. […] The low background activity in the absence of dihydrofolic acid was subtracted from all rates.
as §2

TgDHFR = molecular target: T3, TgDHFR (Toxoplasma gondii, UniProt Q07422); test: biochemical; assay type: biochemical
T3 construct: DHFR from T. gondii was isolated directly from RH strain T. gondii grown in culture; endogenous in cells; host or cells: RH strain T. gondii grown on CHO/dhfr- cells
T3 sequence (Q07422 1-610): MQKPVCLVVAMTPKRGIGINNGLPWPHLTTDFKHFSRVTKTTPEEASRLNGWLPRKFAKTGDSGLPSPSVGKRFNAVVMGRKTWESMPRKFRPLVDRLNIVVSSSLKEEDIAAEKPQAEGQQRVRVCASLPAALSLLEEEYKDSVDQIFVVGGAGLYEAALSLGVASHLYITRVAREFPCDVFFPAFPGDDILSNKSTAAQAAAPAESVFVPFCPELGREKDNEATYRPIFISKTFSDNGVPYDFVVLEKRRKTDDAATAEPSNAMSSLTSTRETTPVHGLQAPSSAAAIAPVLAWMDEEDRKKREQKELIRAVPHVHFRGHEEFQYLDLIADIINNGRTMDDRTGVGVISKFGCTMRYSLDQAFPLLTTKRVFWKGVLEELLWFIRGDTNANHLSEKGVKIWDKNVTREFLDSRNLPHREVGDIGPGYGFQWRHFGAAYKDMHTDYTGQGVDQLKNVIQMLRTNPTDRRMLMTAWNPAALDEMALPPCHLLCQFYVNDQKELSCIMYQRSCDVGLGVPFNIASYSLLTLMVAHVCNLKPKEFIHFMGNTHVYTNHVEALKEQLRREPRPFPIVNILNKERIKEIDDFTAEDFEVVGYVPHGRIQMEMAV
Experimental: DHFR from Pneumocystis carinii was produced as the recombinant enzyme expressed in Escherichia coli. […] Organisms were introduced into a confluent monolayer and harvested when the mammalian cells were lysed. The 100,000× g supernate was stored in liquid nitrogen.
as §1, §2

Mav DHFR = molecular target: T4, Mav DHFR (Mycobacterium avium, UniProt O30463); test: Spectrophotometric DHFR assay, Mycobacterium avium-intracellulare DHFR; assay type: biochemical; settings: 37°C; (95% confidence limits)
T4 construct: the bacteria were centrifuged, sonicated, and the 100,000 Xg supernate was stored under liquid nitrogen until assay; endogenous in cells; host or cells: M. avium-intracellulare clinical isolate (serovar 4), Indiana University School of Medicine
T4 sequence (O30463 1-181): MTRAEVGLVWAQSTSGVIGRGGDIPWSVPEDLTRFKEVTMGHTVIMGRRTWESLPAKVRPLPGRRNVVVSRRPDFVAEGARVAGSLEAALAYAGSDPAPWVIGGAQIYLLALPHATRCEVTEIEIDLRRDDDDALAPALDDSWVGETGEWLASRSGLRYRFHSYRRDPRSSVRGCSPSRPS
Experimental: Mycobacterium avium-intracellulare used in these studies was a clinical isolate (serovar 4) from Indiana University School of Medicine, Department of Pathology. The strain was maintained on Lowenstein-Jensen slants (Baxter Scientific) grown at room temperature. To produce enzyme, the organism was grown in Middlebrook 7H-9 liquid medium at 37°C to an OD660 of 0.5 to 0.7, which took several weeks. At harvest, the bacteria were centrifuged, sonicated, and the 100,000 Xg supernate was stored under liquid nitrogen until assay. These supernates contained both DHFR and dihydroopteroate synthetase activity.
The spectrophotometric assay for DHFR was optimized for temperature and concentration of substrate and cofactor for each enzyme. The standard assay contained Na phosphate buffer pH 7.4 (40.7 mM), 2-mercaptoethanol (8.9 mM), NADPH (0.117 mM), dihydrofolic acid (0.09 mM), KCL (150 mM), and sufficient enzyme to produce a change in OD340 of 0.035/minute at 37°C. The reaction was continuously recorded for 3 minutes. Activity under these conditions was linear with enzyme concentration over a 4-fold range. The low background activity in the absence of dihydrofolic acid was subtracted from all rates.
as §2

[1] = Thompson Antimalarial Assay LD50; settings: mouse, in vivo; @ Day 6
[2] = system: tester strains TA97, TA98, TA100, TA102 and TA1535; test: Ames Test with and without microsomal activation; settings: Tester Strains TA98, TA100, TA1535, TA1537 and TA1538
P. falciparum strains = settings: drug-sensitive and drug-resistant strains; ref [4]-[10]; cited from earlier work
P. falciparum = settings: ref [4]-[11]; cited from earlier work
[3] = ref 4 (superscript at the row head, footnote not given); cited from earlier work
[4] = ref 4 (superscript at the row head, footnote not given); cited from earlier work; remark: listed apart in the source
[5] = system: tester strains TA97, TA98, TA100, TA102 and TA1535; test: Ames Test with and without microsomal activation
Experimental: (§3) A 42-day toxicology study in CD-1 mice at doses up to 98 mg/kg evaluating well-being, weight gain, and histopathology was performed. […] 7.5 mg/kg was established as the NOAEL (No Observed Adverse Effect Level). JPC-2056 and JPC-2067 were assayed in the Ames Test with and without microsomal activation with tester strains TA97, TA98, TA100, TA102 and TA1535.

[6] = 42-day toxicology study in CD-1 mice; assay type: in vivo
Experimental: as §3

[7] = 42-day toxicology study in Macaca fascicularis; assay type: in vivo
[8] = 42-day study, doses up to 98 mg/kg

Compound: CC1(C)N=C(N)N=C(N)N1OCCCOc1cc(Cl)c(Cl)cc1Cl [JPC-208-B, 4,6-diamino-1,2-dihydro-2,2-dimethyl-1-[3′(2,4,5-trichlorophenoxy)propyloxy]-1,3,5-triazine]
- IC50 (Rat liver DHFR): 0.81 nM
- Selectivity for pathogen DHFR (in words) (Rat liver DHFR): not selective
- IC50 (Pc DHFR; 37°C, (95% confidence limits), read-out: Pc DHFR IC50): 0.265 nM
- IC50 (TgDHFR; 37°C, (95% confidence limits), read-out: Tg DHFR IC50): 0.602 nM
- IC50 (Mav DHFR): 0.57 nM
- LD50 at 6 day [1]: > 128 mg/kg
- Ames w/o Activation [2]: Not Active ^#
- Ames with Activation [2]: Not Active ^#
- ED50 in vitro against P. falciparum strains (P. falciparum strains): 0.05 ng/mL (≈ 0.127 nM)
- Activity in vivo against P. falciparum, greater than that of pyrimethamine (P. falciparum): 2 logs
- Oral LD50 Rat [3]: 1,980 mg/kg
- Oral LD50 Mouse [4]: 3,510 mg/kg

Compound: CCc1nc(N)nc(N)c1-c1ccc(Cl)cc1 [JPC-1090-A-1, Pyrimethamine]
- IC50 (Rat liver DHFR): 1320 nM
- IC50 (Pc DHFR): 6170 nM
- IC50 (Mav DHFR): 1200 nM

Compound: CC1(C)N=C(N)N=C(N)N1c1ccc(Cl)cc1 [JPC-2013-B-1, cycloguanil]
- IC50 (Rat liver DHFR): 1730 nM
- Selectivity for pathogen DHFR (in words) (Rat liver DHFR): not significantly selective
- IC50 (Pc DHFR): 8900 nM
- IC50 (TgDHFR): 410 nM
- IC50 (Mav DHFR): 12100 nM

Compound: CC(C)NC(=N)NC(=N)NOCCCOc1ccc(OC(F)(F)F)cc1Cl [JPC-2056, 1-(3′-(2-chloro-4-trifluoromethoxyphenyloxy)propyloxy)-5-isopropylbiguanide]
- Ames Test, with and without microsomal activation [5]: No activity
- Ames w/o Activation [5]: Not Active ^*
- Ames with Activation [5]: Not Active ^*
- Toxicological findings, CD-1 Mice ([6]; 98 mg/kg for 42 days): Inhibition of Weight Gain at 98 mg/kg for 42 days
- Gross pathology, CD-1 mice [6, 8]: no gross pathology with the exception of a reduction in the rate of weight gain
- Histopathology findings, CD-1 mice [6, 8]: no histopathology findings
- Toxicological findings, Cynomolgous Monkey ([7]; 15 mg/kg for 42 days): Intermittent Loose Stools/Diarrhea 15 mg/kg for 42 days
- Findings in Macaca fascicularis at 15 mg/kg ([7]; 42-day study, 15 mg/kg, resolved upon drug withdrawal): histopathology findings at 15 mg/kg with sproradic episodes of loose stools/diarrhea
- NOAEL at 42 day ([7]; cynomolgus monkey, in vivo, 42-day study, read-out: NOAEL (No Observed Adverse Effect Level)): 7.5 mg/kg
- LD50 at 6 day [1]: 256 mg/kg

Compound: CC(C)N=C(N)/N=C(\N)NOCCCOc1cc(Cl)c(Cl)cc1Cl.Cl [PS-15]
- Activity in vivo against P. falciparum, greater than that of pyrimethamine (P. falciparum): 2 logs
